Patent US20250230138A1, “COMPOUNDS HAVING A T-STRUCTURE FORMED BY AT LEAST FOUR CYCLES FOR USE IN THE TREATMENT OF CANCER AND OTHER INDICATIONS” (TheRas, Inc., priority 2022, published 2025)
Where two headings read alike, the source gives them in different places. Blank lines part the entries; values can stand above or below the molecule they belong to.

Experiments:
[1] = test system: pAKT in BT474 cells; assay: Cell-based pAKT HTRF assay in BT474 cells; conditions: BT474 cells, 4 hr incubation, read-out: pAKT inhibition IC50 in BT474 cells
How it was run: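 Compound titration: 3 μM downward in 3-fold steps, nine points, 4 hr on cells. Detection: lysis, then d2 plus Eu Cryptate antibody mix, room-temperature incubation of 4–24 h, and time-resolved fluorescence read at 615 nm.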

[2] = biological target: Cys242 in human PIK3CA (157-299) (Homo sapiens (Human), UniProt P42336); assay: Covalent modification assay using MALDI-TOF MS; assay type: biochemical; conditions: 4 h reaction time point
How it was run: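 PIK3CA (157-299), 3.33 or 1 μM in 20 mM HEPES, 150 mM NaCl, 2 mM MgCl2, pH 7.3, was incubated with compound at room temperature in the dark for 15 min, 30 min, 2 h or 4 h. Linear MALDI-TOF read-out; % modification = adduct peak height over summed heights of all protein species.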

[3] = 3.33 μM protein target, 1:7.5 protein to compound ratio (compounds 1-852)
[4] = 1 μM protein target, 1:5 protein to compound ratio (compounds 853-1279)

Cys242 in human PIK3CA (157-299), sequence (P42336 157-299): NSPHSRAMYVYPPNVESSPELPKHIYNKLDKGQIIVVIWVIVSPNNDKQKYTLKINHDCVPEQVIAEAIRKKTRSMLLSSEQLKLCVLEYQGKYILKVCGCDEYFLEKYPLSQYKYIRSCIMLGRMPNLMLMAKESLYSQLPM

IC50 ([1]; Compounds 10-999): < 100 nM
SMILES: C=CC(=O)N1Cc2cc(-c3nc(-c4ccc5nn(C)cc5c4)c4ccsc4c3-c3c(F)cc(F)cc3OCCOC)nn2C[C@H]1C [Compound 668, 1-((R)-2-((S)-7-(2,4-difluoro-6-(2-methoxyethoxy)phenyl)-4-(2-methyl-2H-indazol-5-yl)thieno[3,2-c]pyridin-6-yl)-6-methyl-6,7-dihydropyrazolo[1,5-a]pyrazin-5(4H)-yl)prop-2-en-1-one]
% of modification [2, 3]: A (percent of modification of PIK3CA protein ≥75%)

IC50 ([1]; Compounds 10-999): < 100 nM
SMILES: C=CC(=O)N1Cc2cc(-c3nc(-c4ccc5c(c4)CCN(C)C5)c4ccsc4c3-c3c(F)cc(F)cc3OCCO)nn2C[C@H]1C [Compound 512]
% of modification [2, 3]: A (percent of modification of PIK3CA protein ≥75%)

IC50 ([1]; Compounds 10-999): < 100 nM
SMILES: C=CC(=O)N1Cc2cc(-c3nc(-c4ccc5nn(C)cc5c4)c4ccsc4c3-c3c(F)cc(F)cc3OC(C)C)nn2C[C@H]1C [Compound 525]
% of modification [2, 3]: A (percent of modification of PIK3CA protein ≥75%)

IC50 ([1]; Compounds 10-999): 100 to 1000 nM | % of modification [2, 4]: B (50%<percent of modification <75%)
SMILES: C=CC(=O)N1Cc2cc(-c3nc(-c4ccc5c(c4)CN(C)C5=O)c4ccsc4c3-c3c(F)cc(F)cc3OC)nn2C(C)C1 (stereo not drawn) [Compound 911]

IC50 ([1]; Compounds 10-999): 100 to 1000 nM | % of modification [2, 3]: D (percent of modification <25%)
SMILES: C=CC(=O)N1Cc2cc(-c3nc(-c4ccc5c(c4)CCN(C)C5)c4ccsc4c3-c3c(F)cc(F)cc3OC(C)C)nn2C(C)C1 (stereo not drawn) [Compound 555]

IC50 ([1]; Compounds 10-999): < 100 nM
SMILES: C=CC(=O)N1CCn2nc(-c3nc(-c4ccc(N5CCN(C)CC5)nc4)c4ccsc4c3-c3c(F)cc(F)cc3OCCOC)cc2C1C (stereo not drawn) [Compound 930]
% of modification [2, 4]: A (percent of modification of PIK3CA protein ≥75%)

IC50 ([1]; Compounds 10-999): < 100 nM
SMILES: C=CC(=O)N1Cc2cc(-c3nc(-c4nc(C)no4)c4ccsc4c3-c3c(F)cc(F)cc3OCCOC)nn2C[C@H]1C [Compound 822]
% of modification [2, 3]: A (percent of modification of PIK3CA protein ≥75%)

IC50 ([1]; Compounds 10-999): 100 to 1000 nM | % of modification [2, 3]: B (50%<percent of modification <75%)
SMILES: C=C(F)C(=O)N1CCn2nc(-c3nc(-c4ccc5c(c4)CCN(C)C5)c4ccsc4c3-c3c(F)cc(F)cc3OCC(C)O)cc2C1 (stereo not drawn) [Compound 527]

IC50 ([1]; Compounds 1000-1279): < 100 nM
SMILES: C=CC(=O)N1CCn2nc(-c3nc(-c4ccc5c(cnn5C)c4)c4ccsc4c3-c3c(F)cc(F)cc3OCCOC(F)F)cc2C1C (stereo not drawn) [Compound 1234]
% of modification [2, 4]: A (percent of modification of PIK3CA protein ≥75%)

IC50 ([1]; Compounds 10-999): < 100 nM
SMILES: C=CC(=O)N1Cc2cc(-c3nc(-c4cnc5cn(C)nc5c4)c4ccsc4c3-c3c(F)cc(F)cc3OCCOC)nn2C[C@H]1C [Compound 818]
% of modification [2, 3]: A (percent of modification of PIK3CA protein ≥75%)

IC50 ([1]; Compounds 1000-1279): < 100 nM
SMILES: C=CC(=O)N1CCn2nc(-c3nc(-c4ccc5c(c4)CCN(C)C5(C)C)c4ccsc4c3-c3c(F)cc(F)cc3OCCO)cc2C1C (stereo not drawn) [Compound 1181]
% of modification [2, 4]: A (percent of modification of PIK3CA protein ≥75%)

IC50 ([1]; Compounds 10-999): 100 to 1000 nM
SMILES: C=CC(=O)N1CCc2nc(-c3nc(-c4ccc5c(c4)CCNC5)c4ccsc4c3-c3c(F)cc(F)cc3OCCO)sc2C1 [Compound 415]
% of modification [2, 3]: A (percent of modification of PIK3CA protein ≥75%)

IC50 ([1]; Compounds 1000-1279): < 100 nM
SMILES: C=CC(=O)N1CCn2nc(-c3nc(-c4ccc5c(c4)CN(C)CC54CC4)c4ccsc4c3-c3c(F)cc(F)cc3OCCOC)cc2C1C (stereo not drawn) [Compound 1113]
% of modification [2, 4]: A (percent of modification of PIK3CA protein ≥75%)

IC50 ([1]; Compounds 10-999): < 100 nM
SMILES: C=CC(=O)N1CCn2nc(-c3nc(-c4ccc5c(c4)CCN(C)C5)c4ccsc4c3-c3c(F)cc(F)cc3OCCO)cc2C1C (stereo not drawn) [Compound 533]
% of modification [2, 3]: A (percent of modification of PIK3CA protein ≥75%)

Further lines, the molecule ahead of its results:

SMILES: C=CC(=O)N1CCn2nc(-c3nc(-c4ccc5c(c4)NC(=O)CN(C)C5)c4ccsc4c3-c3c(F)cc(F)cc3OCCOC)cc2[C@H]1C [Compound 1132, 8-((S)-6-((R)-5-acryloyl-4-methyl-4,5,6,7-tetrahydropyrazolo[1,5-a]pyrazin-2-yl)-7-(2,4-difluoro-6-(2-methoxyethoxy)phenyl)thieno[3,2-c]pyridin-4-yl)-4-methyl-1,3,4,5-tetrahydro-2H-benzo[e][1,4]diazepin-2-one]
IC50 ([1]; Compounds 1000-1279): < 100 nM | % of modification [2, 4]: A (percent of modification of PIK3CA protein ≥75%)

SMILES: C=CC(=O)N1CCc2ncc(-c3nc(-c4ccc5c(c4)CCNCC5)c4ccsc4c3-c3ccc(F)cc3OC)cc2C1 [Compound 103]
IC50 ([1]; Compounds 10-999): 100 to 1000 nM | % of modification [2, 3]: A (percent of modification of PIK3CA protein ≥75%)

SMILES: C=CC(=O)N1CCn2nc(-c3nc(N4CCS(=O)(=O)CC4)c4ccsc4c3-c3ccc(F)cc3OC(C)C)cc2C1 [Compound 286]
IC50 ([1]; Compounds 10-999): > 3000 nM | % of modification [2, 3]: A (percent of modification of PIK3CA protein ≥75%)

SMILES: C=CC(=O)N1CCc2nc(-c3nc(-c4ccc(C5(N)CCC5)cc4)c4ccsc4c3-c3c(F)cc(F)cc3OCCOC)sc2C1 [Compound 436]
IC50 ([1]; Compounds 10-999): 100 to 1000 nM | % of modification [2, 3]: A (percent of modification of PIK3CA protein ≥75%)

SMILES: C=C(F)C(=O)N1CCn2nc(-c3nc(-c4ccc5c(c4)CNC5=O)c4ccsc4c3-c3c(F)cc(F)cc3OC[C@@H](C)O)cc2C1 [Compound 517]
IC50 ([1]; Compounds 10-999): 100 to 1000 nM | % of modification [2, 3]: B (50%<percent of modification <75%)

SMILES: C=CC(=O)N1CC[C@H](n2ccc(-c3nc(-c4cnn(C)c4)c4ccsc4c3-c3ccc(F)cc3OC(C)C)n2)C1 [Compound 318]
IC50 ([1]; Compounds 10-999): < 100 nM | % of modification [2, 3]: A (percent of modification of PIK3CA protein ≥75%)

SMILES: C=CC(=O)N1CCc2nc(-c3nc(-c4ccc5c(c4)CCN(C)C5)c4ccsc4c3-c3c(F)cc(F)cc3OC(CF)CF)sc2C1 [Compound 522]
IC50 ([1]; Compounds 10-999): 100 to 1000 nM | % of modification [2, 3]: A (percent of modification of PIK3CA protein ≥75%)

SMILES: C=CC(=O)N1Cc2cc(-c3nc(-c4cn(C)cn4)c4ccsc4c3-c3c(F)cc(F)cc3OCC(C)(C)O)nn2[C@@H](C)C1 [Compound 883]
IC50 ([1]; Compounds 10-999): < 100 nM | % of modification [2, 4]: A (percent of modification of PIK3CA protein ≥75%)

SMILES: C=CC(=O)N1CCc2nc(-c3nc(-c4ccc5oc(C)nc5c4)c4ccsc4c3-c3c(F)cc(F)cc3OCCOC)sc2C1 [Compound 428]
IC50 ([1]; Compounds 10-999): < 100 nM | % of modification [2, 3]: A (percent of modification of PIK3CA protein ≥75%)

SMILES: C=C(F)C(=O)N1CCn2nc(-c3nc(-c4ccc5c(c4)CNC5=O)c4ccsc4c3-c3ccc(Cl)cc3OC(C)C)cc2C1 [Compound 361]
IC50 ([1]; Compounds 10-999): < 100 nM | % of modification [2, 3]: A (percent of modification of PIK3CA protein ≥75%)

SMILES: C=CC(=O)N1CCc2ccc(-c3nc(-c4ccc5c(c4)CN(CCOC)CC5(F)F)c4ccsc4c3-c3c(F)cc(F)cc3OCCOC)cc2C1 [Compound 1277]
IC50 ([1]; Compounds 1000-1279): > 1000 nM | % of modification [2, 4]: D (percent of modification <25%)

SMILES: C=CC(=O)N1CCc2nc(-c3nc(-c4cnc5c(c4)CN(C)CC5)c4ccsc4c3-c3c(F)cc(F)cc3OCCOC)sc2C1 [Compound 365]
IC50 ([1]; Compounds 10-999): < 100 nM | % of modification [2, 3]: A (percent of modification of PIK3CA protein ≥75%)

SMILES: C=CC(=O)N1CCn2nc(-c3nc(-c4cnn(C)c4)c4ccsc4c3-c3ccc(Cl)cc3F)cc2C1 [Compound 284]
IC50 ([1]; Compounds 10-999): 100 to 1000 nM | % of modification [2, 3]: A (percent of modification of PIK3CA protein ≥75%)

SMILES: C=CC(=O)N1CCn2nc(-c3nc(-c4ccc([C@H](N(C)C)C(F)(F)F)cc4)c4ccsc4c3-c3c(F)cc(F)cc3OCCOC)cc2[C@H]1C (single isomer, unassigned) [Compound 1150]
IC50 ([1]; Compounds 1000-1279): 100 to 1000 nM | % of modification [2, 4]: A (percent of modification of PIK3CA protein ≥75%)

SMILES: C=CC(=O)N1CCC(n2cc(-c3nc(-c4ccc5c(c4)CS(=O)(=O)C5)c4ccsc4c3-c3ccc(F)cc3OCCOC)cn2)CC1 [Compound 61]
IC50 ([1]; Compounds 10-999): < 100 nM | % of modification [2, 3]: A (percent of modification of PIK3CA protein ≥75%)

SMILES: C=CC(=O)N1CCn2nc(-c3nc(-c4ccnc(OCCN(C)C)c4)c4ccsc4c3-c3c(F)cc(F)cc3OCCOC)cc2C1C (stereo not drawn) [Compound 1199]
IC50 ([1]; Compounds 1000-1279): < 100 nM | % of modification [2, 4]: A (percent of modification of PIK3CA protein ≥75%)

SMILES: C=CC(=O)N1CCn2nc(-c3nc(-c4ccc5c(c4)CCNC5=O)c4ccsc4c3-c3ccc(F)cc3OC3CC3)cc2C1 [Compound 302]
IC50 ([1]; Compounds 10-999): < 100 nM | % of modification [2, 3]: A (percent of modification of PIK3CA protein ≥75%)

SMILES: C=CC(=O)N1CCc2ncc(-c3nc(-c4ccc5c(c4)CN(C)C5=O)c4ccsc4c3-c3c(F)cc(F)cc3OC(C)C)cc2C1 [Compound 407]
IC50 ([1]; Compounds 10-999): < 100 nM | % of modification [2, 3]: A (percent of modification of PIK3CA protein ≥75%)

SMILES: C=CC(=O)N1CCn2nc(-c3nc(-c4ccc5c(c4)ncn5C)c4ccsc4c3-c3c(F)cc(F)cc3OC[C@@H](C)O)cc2[C@H]1C [Compound 761]
IC50 ([1]; Compounds 10-999): < 100 nM | % of modification [2, 3]: A (percent of modification of PIK3CA protein ≥75%)
